Experimental data from patent US11535599B2, “Benzisoxazole derivative” (Sumitomo Pharma Co., Ltd., priority 2020, dated 2022).
Read-outs that look alike come from different tables or passages of the source.

Experiments:
human CA-II = human CA-II (Homo sapiens (Human), UniProt P00918); experiment: Activity for inhibiting carbonic anhydrase (CA); assay type: biochemical; conditions: 4-nitrophenyl acetate substrate
Description: CA is a zinc metalloenzyme family which catalyzes reversible hydration between carbon dioxide, and bicarbonate and proton.
As a substance for decomposition by CA-II, 4-nitrophenyl acetate was used herein. 4-Nitrophenyl acetate is […] with CA-II to produce 4-nitrophenol. […] To the diluted solution were added […] (final concentration: 5 mmol/L) and the present compound of each concentration, and the mixture was incubated at 37° C. under shading for 30 minutes. […] The IC50 of the compound was obtained through the two-parameter logistic model with the inhibitory rate data in each concentration which was obtained from plural trials.

[1] = system: unilateral lesion model of nigrostriatal dopamine neuron induced with 6-OHDA; experiment: Extending duration of levodopa-induced rotational behavior in 6-OHDA unilateral lesion model; assay type: in vivo, rat; conditions: Examples 10 or 30 mg/kg oral; rasagiline 0.6 mg/kg; with levodopa 5 mg/kg i.p.
Rat striatum MAOB = Rat striatum MAOB (Rattus norvegicus (Rat), UniProt P19643); experiment: Activity for inhibiting monoamine oxidase B (MAOB); assay type: biochemical
Sequence of Rat striatum MAOB (P19643 whole entry): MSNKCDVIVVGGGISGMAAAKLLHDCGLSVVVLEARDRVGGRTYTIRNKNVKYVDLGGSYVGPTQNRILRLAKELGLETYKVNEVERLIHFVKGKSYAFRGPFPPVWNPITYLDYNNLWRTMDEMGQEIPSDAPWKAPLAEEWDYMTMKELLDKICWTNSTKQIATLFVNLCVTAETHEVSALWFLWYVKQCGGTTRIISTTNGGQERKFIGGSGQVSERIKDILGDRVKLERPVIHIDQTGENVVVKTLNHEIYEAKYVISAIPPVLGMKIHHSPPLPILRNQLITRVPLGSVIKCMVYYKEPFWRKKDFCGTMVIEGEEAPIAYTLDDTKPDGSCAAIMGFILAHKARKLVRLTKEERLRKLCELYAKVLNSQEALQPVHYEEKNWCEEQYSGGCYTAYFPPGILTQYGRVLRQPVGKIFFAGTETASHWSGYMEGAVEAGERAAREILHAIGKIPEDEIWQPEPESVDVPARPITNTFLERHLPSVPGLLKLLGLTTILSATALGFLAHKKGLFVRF
Description: MAOB is an enzyme involved in oxidative de-amino acid reaction of an endogenous monoamine neurotransmitter such as dopamine. […] The effect of the present compounds for inhibiting MAOB in rat striatum and simian striatum was tested.
Mitochondria⋅synaptosome fraction containing MAOB was prepared according to the following procedure. To striata of male Slc: Wistar rat (Japan SLC, Inc.) or male cynomolgus monkey (HAMRI CO., LTD.) was added 0.32 mol/L aqueous sucrose by 10 mL per 1 gram as wet weight of the tissue, and the mixture was homogenized. The homogenate was centrifuged at 4° C. at 1,000 g for 10 minutes, and the obtained supernatant was centrifuged again at 4° C. at 17,200 g for 20 minutes. To the obtained precipitate was added a prepared buffer solution (10 mmol/L Tris-HCl buffer solution (pH 7.4), 0.25 mol/L aqueous sucrose, 0.5 mmol/L EDTA-2K) by 10 mL per 1 gram as wet weight of the original tissue, and the mixture was centrifuged again at 4° C. at 17,200 g for 20 minutes. To the obtained precipitate was added the prepared buffer solution by 40 mL per 1 gram as wet weight of the original tissue. The mixture was suspended to be used as an enzyme homogenate solution.
As a substance to be degraded by MAOB, ^14C-labeled β-phenylethylamine ([^14C] β-PEA) was used. [^14C] β-PEA and the present compound solution diluted to each concentration were incubated with the enzyme homogenate solution at 37° C. for a given period, and then the reaction was stopped by adding 3 mol/L cold HCl thereto. The reaction product was extracted with a mixture of water-saturated toluene and ethyl acetate (1:1). The supernatant organic layer was separated, a liquid scintillation cocktail (ACSII, GE Healthcare) was added to the separated organic layer, and the radioactivity was measured with a liquid scintillation counter (TRI-CARB 3100TR, Packard). The IC50 value of each compound was determined based on two parameter logistic model with the inhibitory data of each concentration, said data were obtained from plural trials.

[2] = system: reserpine-induced Parkinson's disease model mouse; experiment: Potentiating effect of levodopa-induced hyperactivity in reserpine-induced Parkinson's disease model mouse; assay type: in vivo; conditions: Examples 12.5 or 25 mg/kg oral; rasagiline 3 or 10 mg/kg; with levodopa 200 mg/kg i.p.
Description: Dopamine-depleted mice due to reserpine treatment are model mice of akinesia symptoms in Parkinson's disease, said symptoms are relieved with levodopa (L-DOPA). The effect of the present compounds for potentiating the levodopa's effect was tested.
In the present test, male Crl: CD1 (ICR) mice (CHARLES RIVER LABORATORIES JAPAN, INC.) were used. 20-24 hours before starting the movement measurement, reserpine (3 mg/kg) was intraperitoneally administered to the mouse. One hour before starting the movement measurement, the present compound (12-.5 mg/kg or 25 mg/kg of. Examples 1, 2, 3, 4, and 5) was orally administered to the mouse. Shortly before starting the movement measurement, levodopa (200 mg/kg) with benserazide whose amount was ¼ of levodopa in free form was intraperitoneally administered to the mouse. The movement measurement was carried out for 90 minutes, and each total movement was compared.

human Cav3.1 = human Cav3.1 (Homo sapiens (Human), UniProt O43497); experiment: T-type calcium channel inhibitory activity, whole-cell patch-clamp with HEK293 cell; assay type: cell-based; conditions: for inhibition at 600 µM: HEK293, 600 μmol/L, read-out: Cav3.1 % inhibitory rate; for IC50: dose-reactive test, read-out: Cav3.1 IC50 (parenthesized)
Sequence of human Cav3.1 (O43497 whole entry): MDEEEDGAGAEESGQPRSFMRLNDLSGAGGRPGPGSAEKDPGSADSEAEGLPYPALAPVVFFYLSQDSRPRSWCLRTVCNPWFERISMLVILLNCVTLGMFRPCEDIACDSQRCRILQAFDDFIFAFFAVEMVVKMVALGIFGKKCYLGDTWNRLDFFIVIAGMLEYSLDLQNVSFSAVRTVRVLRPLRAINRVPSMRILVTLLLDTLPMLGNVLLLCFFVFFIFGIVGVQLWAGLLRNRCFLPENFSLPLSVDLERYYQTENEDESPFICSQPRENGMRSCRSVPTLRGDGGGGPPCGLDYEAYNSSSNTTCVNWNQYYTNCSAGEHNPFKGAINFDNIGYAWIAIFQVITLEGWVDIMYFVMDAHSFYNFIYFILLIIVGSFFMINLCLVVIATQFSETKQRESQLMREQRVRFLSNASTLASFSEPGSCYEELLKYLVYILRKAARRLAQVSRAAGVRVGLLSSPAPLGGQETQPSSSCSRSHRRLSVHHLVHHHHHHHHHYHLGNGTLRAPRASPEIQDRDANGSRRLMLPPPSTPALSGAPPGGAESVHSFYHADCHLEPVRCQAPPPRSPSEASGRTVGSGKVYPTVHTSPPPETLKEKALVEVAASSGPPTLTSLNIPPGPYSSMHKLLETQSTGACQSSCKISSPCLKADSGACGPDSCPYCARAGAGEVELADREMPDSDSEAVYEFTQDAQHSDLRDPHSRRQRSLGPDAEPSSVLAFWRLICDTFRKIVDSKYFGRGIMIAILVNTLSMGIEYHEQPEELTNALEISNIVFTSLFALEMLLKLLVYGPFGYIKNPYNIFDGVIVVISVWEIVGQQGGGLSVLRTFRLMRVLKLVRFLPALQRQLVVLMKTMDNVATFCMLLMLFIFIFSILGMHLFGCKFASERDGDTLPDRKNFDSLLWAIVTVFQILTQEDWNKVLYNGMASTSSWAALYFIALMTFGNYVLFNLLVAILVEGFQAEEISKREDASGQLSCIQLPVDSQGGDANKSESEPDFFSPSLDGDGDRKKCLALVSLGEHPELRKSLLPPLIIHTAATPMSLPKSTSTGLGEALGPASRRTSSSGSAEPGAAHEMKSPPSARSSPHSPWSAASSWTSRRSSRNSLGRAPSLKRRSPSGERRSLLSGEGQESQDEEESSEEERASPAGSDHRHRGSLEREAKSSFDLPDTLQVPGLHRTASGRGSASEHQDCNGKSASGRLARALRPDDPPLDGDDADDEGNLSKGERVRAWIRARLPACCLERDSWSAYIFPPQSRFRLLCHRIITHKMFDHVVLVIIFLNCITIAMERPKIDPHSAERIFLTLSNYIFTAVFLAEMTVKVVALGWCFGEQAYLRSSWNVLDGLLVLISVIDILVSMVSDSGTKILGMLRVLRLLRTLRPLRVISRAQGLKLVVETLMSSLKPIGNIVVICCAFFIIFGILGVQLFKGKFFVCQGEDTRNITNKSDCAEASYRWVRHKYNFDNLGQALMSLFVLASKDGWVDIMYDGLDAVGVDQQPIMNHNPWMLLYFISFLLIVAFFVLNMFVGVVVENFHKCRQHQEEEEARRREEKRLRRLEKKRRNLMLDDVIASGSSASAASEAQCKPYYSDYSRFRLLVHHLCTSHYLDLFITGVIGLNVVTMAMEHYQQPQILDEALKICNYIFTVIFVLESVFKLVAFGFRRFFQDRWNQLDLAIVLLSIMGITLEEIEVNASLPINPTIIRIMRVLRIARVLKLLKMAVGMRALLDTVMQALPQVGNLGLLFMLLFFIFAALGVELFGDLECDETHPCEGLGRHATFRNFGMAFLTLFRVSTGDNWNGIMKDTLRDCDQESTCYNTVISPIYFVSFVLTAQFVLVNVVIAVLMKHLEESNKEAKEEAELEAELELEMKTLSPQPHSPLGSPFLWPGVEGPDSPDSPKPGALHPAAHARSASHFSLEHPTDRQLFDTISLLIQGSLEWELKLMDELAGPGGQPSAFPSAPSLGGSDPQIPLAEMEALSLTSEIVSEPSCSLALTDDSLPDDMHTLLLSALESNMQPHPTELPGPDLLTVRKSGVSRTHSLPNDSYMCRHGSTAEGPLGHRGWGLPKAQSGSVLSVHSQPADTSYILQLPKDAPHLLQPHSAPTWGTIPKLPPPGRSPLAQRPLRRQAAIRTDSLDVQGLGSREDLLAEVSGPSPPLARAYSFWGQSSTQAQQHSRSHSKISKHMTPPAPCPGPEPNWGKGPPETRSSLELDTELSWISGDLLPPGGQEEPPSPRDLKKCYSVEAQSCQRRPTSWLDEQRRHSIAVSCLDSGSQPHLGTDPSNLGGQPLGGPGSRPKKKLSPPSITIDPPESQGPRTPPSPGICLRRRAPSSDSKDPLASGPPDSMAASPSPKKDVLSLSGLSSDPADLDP
Description: (§1) The inhibitory activity of the present compounds for T-type calcium channel was measured by whole-cell patch-clamp method with HEK293 cell (vendor of HEK 293 cell: ATCC, Manassas, Va., USA, builder of expressing cell: ChanTest Corporation., Cleveland, Ohio, USA), in which human Cav3.1, human Cav3.2, or human Cav3.3 is expressed. The culture medium used for HEK293 cell was prepared by adding fetal bovine serum (10%), sodium penicillin G (100 U/mL), streptomycin sulfate (100 μg/mL), and G418 (500 μg/mL) to a mixture medium of Dulbecco's modified Eagle's medium/Ham's F-12 medium. The whole-cell current was evaluated with IonWorks Barracuda system and Population Patch Clamp (both are provided by Molecular Device Corporation, Union City, Calif., USA). The extracellular recording solution used during the recording was Hanks' balanced salt solution. The internal recording solution used herein was 50 mmol/L CsCl, 90 mmol/L CsF, 5 mmol/L MgCl2, 1 mmol/L glycol ether diamine tetraacetic acid (EGTA), and 10 mmol/L 4-(2-hydroxyethyl)piperazine-1-ethanesulfonic acid (HEPES (pH 7.2). The holding voltage was held at −90 mV, then changed to −65 mV. 60 seconds later, −20 mV pulse was added thereto for 200 millisecond to activate the channel on plasma membrane and generate calcium current. The calcium current was recorded with an amplifier of IonWorks Barracuda system, and analyzed with a program of the system (Version 2.0.2). The record of the calcium current was obtained twice, before and after the addition of the compound. In the measurement after adding the compound, the cells were exposed to the recording solution containing the compound for more than 5 minutes and then the current was measured. In the analyses, the ratio of current readout after the compound addition per current readout before the compound addition was calculated, the calculated value was subtracted from one, and the obtained value was converted to percentage. […] The value obtained from each compound was canonicalized based on the two ends of values to obtain each inhibitory rate. The positive control compound used herein was TTA-A2 which is known as T-type calcium channel inhibitor. IC50 value was calculated with Hill equation.
(§2) Each inhibitory rate (%) against T-type calcium channel at the evaluation concentration of the present compound (600 μmol/L) is shown in Table 12, in which the parenthesized values are IC50 values (μmol/L)) calculated from the dose-reactive test.

human Cav3.2 = human Cav3.2 (Homo sapiens (Human), UniProt O95180); experiment: as above; assay type: cell-based; conditions: for inhibition at 600 µM: HEK293, 600 μmol/L, read-out: Cav3.2 % inhibitory rate; for IC50: dose-reactive test, read-out: Cav3.2 IC50 (parenthesized)
Description: as §1, §2

human Cav3.3 = human Cav3.3 (Homo sapiens (Human), UniProt Q9P0X4); experiment: as above; assay type: cell-based; conditions: for inhibition at 600 µM: HEK293, 600 μmol/L, read-out: Cav3.3 % inhibitory rate; for IC50: dose-reactive test, read-out: Cav3.3 IC50 (parenthesized)
Sequence of human Cav3.3 (Q9P0X4 whole entry): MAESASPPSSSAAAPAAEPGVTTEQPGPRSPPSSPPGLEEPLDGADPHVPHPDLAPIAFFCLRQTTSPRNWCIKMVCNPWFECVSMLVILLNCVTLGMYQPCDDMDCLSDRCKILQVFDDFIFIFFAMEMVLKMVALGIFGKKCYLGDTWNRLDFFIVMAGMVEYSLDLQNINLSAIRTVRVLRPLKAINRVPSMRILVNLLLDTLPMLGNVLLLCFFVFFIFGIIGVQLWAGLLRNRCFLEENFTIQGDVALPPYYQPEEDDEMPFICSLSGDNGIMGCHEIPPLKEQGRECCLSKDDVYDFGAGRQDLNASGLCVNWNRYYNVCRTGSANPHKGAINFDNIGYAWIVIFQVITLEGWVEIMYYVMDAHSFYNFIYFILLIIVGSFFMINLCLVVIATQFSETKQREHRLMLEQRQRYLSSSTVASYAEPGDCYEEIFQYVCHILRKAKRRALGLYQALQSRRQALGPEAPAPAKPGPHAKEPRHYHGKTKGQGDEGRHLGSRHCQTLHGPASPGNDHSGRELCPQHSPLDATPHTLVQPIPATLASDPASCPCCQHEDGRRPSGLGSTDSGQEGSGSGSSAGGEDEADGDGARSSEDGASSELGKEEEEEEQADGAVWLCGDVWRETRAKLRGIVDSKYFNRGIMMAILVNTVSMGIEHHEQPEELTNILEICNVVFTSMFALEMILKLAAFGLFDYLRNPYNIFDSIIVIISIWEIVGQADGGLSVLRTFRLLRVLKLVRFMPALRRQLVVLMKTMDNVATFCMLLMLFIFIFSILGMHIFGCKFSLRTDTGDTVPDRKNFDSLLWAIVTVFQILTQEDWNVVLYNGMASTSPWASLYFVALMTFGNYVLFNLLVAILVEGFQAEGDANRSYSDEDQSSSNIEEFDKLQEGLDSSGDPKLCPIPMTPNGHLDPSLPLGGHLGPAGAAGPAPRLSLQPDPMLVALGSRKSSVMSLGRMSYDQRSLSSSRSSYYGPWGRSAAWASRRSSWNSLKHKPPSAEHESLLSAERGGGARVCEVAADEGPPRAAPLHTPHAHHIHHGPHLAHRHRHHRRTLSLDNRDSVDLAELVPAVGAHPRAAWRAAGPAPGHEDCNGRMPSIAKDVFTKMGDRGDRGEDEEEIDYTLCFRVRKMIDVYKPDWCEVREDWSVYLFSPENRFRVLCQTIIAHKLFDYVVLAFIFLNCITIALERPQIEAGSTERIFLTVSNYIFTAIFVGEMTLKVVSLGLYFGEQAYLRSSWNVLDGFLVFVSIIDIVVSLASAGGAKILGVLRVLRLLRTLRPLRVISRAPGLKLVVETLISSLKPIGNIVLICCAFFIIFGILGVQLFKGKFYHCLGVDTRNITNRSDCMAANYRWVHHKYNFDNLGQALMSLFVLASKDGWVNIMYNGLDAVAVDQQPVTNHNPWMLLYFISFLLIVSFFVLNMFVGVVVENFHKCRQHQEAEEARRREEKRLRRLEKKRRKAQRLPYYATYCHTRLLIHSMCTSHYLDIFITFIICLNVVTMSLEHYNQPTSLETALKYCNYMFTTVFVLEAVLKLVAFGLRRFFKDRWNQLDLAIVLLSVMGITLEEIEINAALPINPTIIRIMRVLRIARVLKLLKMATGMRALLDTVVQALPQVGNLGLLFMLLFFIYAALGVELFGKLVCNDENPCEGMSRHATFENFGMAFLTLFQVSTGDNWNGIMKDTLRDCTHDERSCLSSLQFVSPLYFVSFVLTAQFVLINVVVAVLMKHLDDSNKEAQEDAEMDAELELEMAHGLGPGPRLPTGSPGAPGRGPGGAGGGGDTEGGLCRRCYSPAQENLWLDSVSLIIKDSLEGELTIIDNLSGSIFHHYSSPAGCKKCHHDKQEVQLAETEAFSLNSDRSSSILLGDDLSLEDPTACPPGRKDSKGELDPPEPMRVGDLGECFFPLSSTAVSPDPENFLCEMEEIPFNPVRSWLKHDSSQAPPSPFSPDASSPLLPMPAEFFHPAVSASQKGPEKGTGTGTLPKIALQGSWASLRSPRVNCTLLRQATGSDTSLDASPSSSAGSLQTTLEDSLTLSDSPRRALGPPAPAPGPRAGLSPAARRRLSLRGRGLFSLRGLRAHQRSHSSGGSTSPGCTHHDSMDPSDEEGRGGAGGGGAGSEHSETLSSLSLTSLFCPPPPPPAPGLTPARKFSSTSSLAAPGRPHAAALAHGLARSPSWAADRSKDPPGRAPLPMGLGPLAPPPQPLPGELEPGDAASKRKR
Description: as §1, §2

[3] = [14C] β-PEA substrate, read-out: Rat striatum MAOB IC50

| IC50 (human CA-II) | IC50 (Rat striatum MAOB; [3]) | inhibition at 600 µM (human Cav3.1) | inhibition at 600 µM (human Cav3.2) | inhibition at 600 µM (human Cav3.3) | IC50 (human Cav3.1) | IC50 (human Cav3.2) | IC50 (human Cav3.3) | Structure (SMILES) | rotational number in the late phase (100-120 minutes) [1] | levodopa-induced hyperactivity (total movement, 90 minutes) [2] | IC50 (Rat striatum MAOB; Rat striatum MAOB IC50, [14C] β-PEA substrate) | MAOB inhibitory action (Rat striatum MAOB; rat striatum, in words) |
| --- | --- | --- | --- | --- | --- | --- | --- | --- | --- | --- | --- | --- |
| 79.2 µM | > 600 µM | 72.7% | 64% | 70% |  |  |  | CC(C)(c1noc2ccccc12)S(N)(=O)=O [Example 2, 2-(1,2-benzoxazol-3-yl)propane-2-sulfonamide] | significantly increased the rotational number in the late phase | significantly-potentiating effect of levodopa-induced hyperactivity |  |  |
| 0.084 µM | 101 µM | 69.9% | 64% | 61% | 325 µM | 362 µM | 440 µM | NS(=O)(=O)C(F)c1noc2ccccc12 (stereo not shown) [Example 3, 1-(1,2-benzoxazol-3-yl)-1-fluoromethane-sulfonamide] | did not show statistically-significant increase, but showed a tendency to increase the rotational number in the late phase | significantly-potentiating effect of levodopa-induced hyperactivity |  |  |
| 0.023 µM | 389 µM |  |  |  |  |  |  | NS(=O)(=O)C(F)(F)c1noc2ccccc12 [Example 4, 1-(1,2-benzoxazol-3-yl)-1,1-difluoromethane-sulfonamide] |  | significantly-potentiating effect of levodopa-induced hyperactivity |  |  |
| 5.2 µM | > 600 µM | 64.5% | 54% | 55.6% |  |  |  | NS(=O)(=O)C1(c2noc3ccccc23)CC1 [Example 5, 1-(1,2-benzoxazol-3-yl)cyclopropane-1-sulfonamide] | did not show statistically-significant increase, but showed a tendency to increase the rotational number in the late phase | significantly-potentiating effect of levodopa-induced hyperactivity |  |  |
| 45.7 µM | > 600 µM | 80.4% | 67.4% | 72.9% |  |  |  | CCC(c1noc2ccccc12)S(N)(=O)=O (stereo not shown) [Example 6, 1-(1,2-benzoxazol-3-yl)propane-1-sulfonamide] |  |  |  |  |
| 32.9 µM | > 600 µM |  |  |  |  |  |  | CCCC(c1noc2ccccc12)S(N)(=O)=O (stereo not shown) [Example 7, 1-(1,2-benzoxazol-3-yl)butane-1-sulfonamide] |  |  |  |  |
| 2.2 µM | > 600 µM | 83.1% | 70.3% | 73% | 216 µM | 318 µM | 321 µM | CC(F)(c1noc2ccccc12)S(N)(=O)=O (stereo not shown) [Example 8, 1-(1,2-benzoxazol-3-yl)-1-fluoroethane-1-sulfonamide] | did not show statistically-significant increase, but showed a tendency to increase the rotational number in the late phase |  |  |  |
|  |  | 96.5% | 96.9% | 94.3% |  |  |  | CC(C)C(c1noc2ccccc12)S(N)(=O)=O (stereo not shown) [Example 9, 1-(1,2-benzoxazol-3-yl)-2-methylpropane-1-sulfonamide] |  |  |  |  |
|  | > 600 µM | 68.5% | 57.7% | 69.7% |  |  |  | COc1ccc2onc(C(C)S(N)(=O)=O)c2c1 (stereo not shown) [Example 10, 1-(5-methoxy-1,2-benzoxazol-3-yl)ethane-1-sulfonamide] |  |  |  |  |
|  | > 600 µM | 56% | 50.8% | 54.3% |  |  |  | CC(c1noc2ccc(F)cc12)S(N)(=O)=O (stereo not shown) [Example 11, 1-(5-fluoro-1,2-benzoxazol-3-yl)ethane-1-sulfonamide] |  |  |  |  |
|  | 150 µM | 95% | 91.5% | 93% |  |  |  | CC(c1noc2ccc(Cl)cc12)S(N)(=O)=O (stereo not shown) [Example 12, 1-(5-chloro-1,2-benzoxazol-3-yl)ethane-1-sulfonamide] |  |  |  |  |
|  |  |  |  |  |  |  |  | C[C@H](NCc1ccc(OCc2cccc(F)c2)cc1)C(N)=O [safinamide, reference compound] | did not show statistically-significant increase, but showed a tendency to increase the rotational number in the late phase |  | 0.193 µM | strong MAOB inhibitory action |
